According to patent US5191079A, “Quinolinecarboxylic acid derivatives” (priority 1990, dated 1993):
Values after ≈ are worked out from the molar mass of the structure shown. Structures can show the parent of a compound that is named as a salt. Where two headings read alike, the source gives them in different places.

Legend:
Assay type in all cases: cell-based
[1] = system: clinically isolated Staphylococcus aureus; experiment: In vitro antibacterial activity against clinical isolates, Experiment 2
Experimental: (§1) The above solutions were then diluted with sterilized distilled water to prepare a standard solution with a concentration of the test compound: 1000 μg/ml each.
(§2) For the preculture of each microorganism, there was used as the medium a sensitivity test broth (manufactured by Nissui Seiyaku K. K., Japan), and for the measurement of MIC, there was used a sensitivity test agar medium (manufactured by Nissui Seiyaku K. K.).
(§3) The clinically isolates used above were isolated from Nov. 1988 to Jun. 1989 and were obtained from Research Section, Tokyo Clinical Research Center.

[2] = system: clinically isolated Enterococcus faecalis; experiment: as above
Experimental: as §1, §2, §3

[3] = system: clinically isolated Staphylococcus epidermidis; experiment: as above; conditions: Staphylococcus epidermidis; for MIC50: 50% of strains, read-out: MIC50
Experimental: as §1, §2, §3

[4] = system: clinically isolated Enterococcus faecium; experiment: as above
Experimental: as §1, §2, §3

[5] = system: Staphylococcus aureus FDA 209P JC-1; experiment: MIC, Experiment 1; conditions: FDA209P, S. aureus FDA 209P JC-1, Gram +, read-out: Min. inhib. concentr. (MIC)
Experimental: (§4) The compounds of the present invention (B, E, G, H, M, N, O, P and Q) were each dissolved in dimethylsulfoxide to prepare a solution of 5000 μg/ml in concentration. The compounds of the present invention (I, J and K) and the known compound (Y) were each dissolved in sterilized distilled water to prepare a solution of 5000 μg/ml in concentration. Each solution was diluted with sterilized distilled water to prepare a standard solution with a concentration of each test compound: 1000 μg/ml. The test was carried out by a method as appointed by Japan Society of Chemotherapy [cf. Chemotherapy, 29, 76-79 (1981), TOKYO].
(§5) As to Streptococcus pneumoniae and Streptococcus pyogenes, Brain heart infusion broth (manufactured by DIFCO) was used as the medium for the preculture thereof, and a heart infusion agar medium containing 5% defibrinated horse blood (manufactured by Nissui Seiyaku K. K., Japan) was used as the medium for the measurement of minimum inhibitory concentration (MIC). As to other microorganisms, a sensitivity test broth (manufactured by Nissui Seiyaku K. K.) was used as the medium for the preculture thereof, and a sensitivity test agar medium (manufactured by Nissui Seiyaku K. K.) was used as the medium for the measurement of MIC.

[6] = system: Staphylococcus aureus Cowan I (IID 975); experiment: MIC, Experiment 1; conditions: IID975, S. aureus Cowan I (IID 975), Gram +, read-out: Min. inhib. concentr. (MIC)
Experimental: as §4, §5

Enterobacter cloacae 963 = experiment: MIC, Experiment 1; conditions: E. cloacae 963, Gram -, read-out: Min. inhib. concentr. (MIC)
Experimental: as §4, §5

[7] = system: Staphylococcus aureus ATCC 9144; experiment: MIC, Experiment 1; conditions: ATCC9144, S. aureus ATCC 9144, Gram +, read-out: Min. inhib. concentr. (MIC)
Experimental: as §4, §5

[8] = system: Streptococcus pyogenes Cook; experiment: MIC, Experiment 1; conditions: S. pyogenes Cook, Gram +, agar with 5% defibrinated horse blood, read-out: Min. inhib. concentr. (MIC)
Experimental: as §4, §5

[9] = system: Streptococcus pneumoniae IID 552; experiment: MIC, Experiment 1; conditions: IID552, S. pneumoniae IID 552, Gram +, agar with 5% defibrinated horse blood, read-out: Min. inhib. concentr. (MIC)
Experimental: as §4, §5

[10] = system: Streptococcus pyogenes Su; experiment: MIC, Experiment 1; conditions: S. pyogenes Su, Gram +, agar with 5% defibrinated horse blood, read-out: Min. inhib. concentr. (MIC)
Experimental: as §4, §5

[11] = system: Staphylococcus aureus FDA 243; experiment: MIC, Experiment 1; conditions: FDA243, S. aureus FDA 243, Gram +, read-out: Min. inhib. concentr. (MIC)
Experimental: as §4, §5

[12] = system: Klebsiella pneumoniae PCI-602; experiment: MIC, Experiment 1; conditions: PCI602, K. pneumoniae PCI-602, Gram -, read-out: Min. inhib. concentr. (MIC)
Experimental: as §4, §5

[13] = system: Proteus mirabilis IFO 3849; experiment: MIC, Experiment 1; conditions: IFO3849, P. mirabilis IFO 3849, Gram -, read-out: Min. inhib. concentr. (MIC)
Experimental: as §4, §5

[14] = system: Micrococcus luteus ATCC 9341; experiment: MIC, Experiment 1; conditions: ATCC9341, M. luteus ATCC 9341, Gram +, read-out: Min. inhib. concentr. (MIC)
Experimental: as §4, §5

[15] = system: Bacillus subtilis ATCC 6633; experiment: MIC, Experiment 1; conditions: ATCC6633, B. subtilis ATCC 6633, Gram +, read-out: Min. inhib. concentr. (MIC)
Experimental: as §4, §5

[16] = system: Streptococcus pyogenes Sv; experiment: MIC, Experiment 1; conditions: S. pyogenes Sv, Gram +, agar with 5% defibrinated horse blood, read-out: Min. inhib. concentr. (MIC)
Experimental: as §4, §5

[17] = system: Acinetobacter calcoaceticus Ac 54; experiment: MIC, Experiment 1; conditions: AC54, A. calcoaceticus Ac 54, Gram -, read-out: Min. inhib. concentr. (MIC)
Experimental: as §4, §5

[18] = system: Streptococcus pneumoniae IID 554; experiment: MIC, Experiment 1; conditions: IID554, S. pneumoniae IID 554, Gram +, agar with 5% defibrinated horse blood, read-out: Min. inhib. concentr. (MIC)
Experimental: as §4, §5

[19] = system: Staphylococcus aureus MS-353; experiment: MIC, Experiment 1; conditions: MS353, S. aureus MS-353, Gram +, read-out: Min. inhib. concentr. (MIC)
Experimental: as §4, §5

[20] = system: Staphylococcus aureus Terajima (IID 670); experiment: MIC, Experiment 1; conditions: IID670, S. aureus Terajima (IID 670), Gram +, read-out: Min. inhib. concentr. (MIC)
Experimental: as §4, §5

[21] = system: Pseudomonas aeruginosa NCTC 10490; experiment: MIC, Experiment 1; conditions: NCTC10490, P. aeruginosa NCTC 10490, Gram -, read-out: Min. inhib. concentr. (MIC)
Experimental: as §4, §5

[22] = 25 clinical strains S. aureus incl. 16 methicillin resistant
[23] = 25 clinical strains S. aureus incl. 16 methicillin resistant, 50% of strains, read-out: MIC50
[24] = 25 clinical strains S. aureus incl. 16 methicillin resistant, 90% of strains, read-out: MIC90
[25] = 25 clinical strains E. faecalis
[26] = 25 clinical strains S. epidermidis
[27] = 25 clinical strains E. faecium, 90% of strains, read-out: MIC90
[28] = 25 clinical strains E. faecalis, 50% of strains, read-out: MIC50

In the case of `CN1Cc2csc3c(C(=O)O)c(=O)c4cc(F)c(N5CCN(C)C(CF)C5)c1c4n23` (stereo not drawn) [Compound (K), 9,1-(methylimino)methano-7-fluoro-8-(3-fluoromethyl-4-methyl-1-piperazinyl)-5-oxo-5H-thiazolo[3,2-a]quinoline-4-carboxylic acid hydrochloride], the MIC [1, 22] is reported as 0.025 to 1.56 µg/mL, the MIC50 [1, 23] is reported as 0.05 µg/mL and the MIC90 [1, 24] is reported as 1.56 µg/mL. The MIC50 [2] was 0.39 µg/mL, the MIC90 [2] was 6.25 µg/mL and the MIC [2, 25] was 0.2 to 6.25 µg/mL. It also gave an MIC90 [3] of 0.78 µg/mL, an MIC [3, 26] of 0.05 to 1.56 µg/mL and an MIC50 [3, 26] of 0.05 µg/mL. For the same compound, the MIC50 [4] was 1.56 µg/mL, the MIC ([4]; 25 clinical strains E. faecium) was 0.2 to 12.5 µg/mL and the MIC90 [4, 27] was 12.5 µg/mL. For the same compound, the MIC [5] was 0.05 µg/mL, the MIC [6] was 0.05 µg/mL and the MIC (Enterobacter cloacae 963) was 0.2 µg/mL. For the same compound, the MIC [7] was 0.05 µg/mL, the MIC [8] was 0.1 µg/mL and the MIC [9] was 0.05 µg/mL. The MIC [10] was 0.05 µg/mL, the MIC [11] was 0.05 µg/mL and the MIC [12] was 0.013 µg/mL. It also gave an MIC [13] of 0.39 µg/mL, an MIC [14] of 0.39 µg/mL and an MIC [15] of 0.013 µg/mL. It also gave an MIC [16] of 0.1 µg/mL, an MIC [17] of 0.025 µg/mL and an MIC [18] of 0.1 µg/mL. The MIC [19] was 0.05 µg/mL, the MIC [20] was 0.05 µg/mL and the MIC [21] was 0.78 µg/mL.
In the case of `CN1Cc2csc3c(C(=O)O)c(=O)c4cc(F)c(N5CCN6CCOC[C@H]6C5)c1c4n23` [Compound (F), 9,1-(Methylimino)methano-7-fluoro-8-[(6R)-1,8-diaza-4-oxabicyclo[4.4.0]deca-8-yl]-5-oxo-5H-thiazolo[3,2-a]quinoline-4-carboxylic acid], the MIC50 [1] is reported as 0.025 µg/mL (≈ 0.0562 µM), the MIC90 [1] is reported as 0.78 µg/mL (≈ 1.75 µM) and the MIC [1, 22] is reported as 0.013 to 0.78 µg/mL (≈ 0.0292 to 1.75 µM). For the same compound, the MIC90 [2] was 6.25 µg/mL (≈ 14.1 µM), the MIC [2, 25] was 0.05 to 6.25 µg/mL (≈ 0.112 to 14.1 µM) and the MIC50 [2, 28] was 0.2 µg/mL (≈ 0.45 µM). It also gave an MIC90 [3] of 0.78 µg/mL (≈ 1.75 µM), an MIC [3, 26] of 0.013 to 1.56 µg/mL (≈ 0.0292 to 3.51 µM) and an MIC50 [3, 26] of 0.05 µg/mL (≈ 0.112 µM). The MIC50 [4] was 1.56 µg/mL (≈ 3.51 µM), the MIC90 [4] was 6.25 µg/mL (≈ 14.1 µM) and the MIC ([4]; 25 clinical strains E. faecium) was 0.2 to 6.25 µg/mL (≈ 0.45 to 14.1 µM). For the same compound, the MIC [5] was 0.025 µg/mL (≈ 0.0562 µM), the MIC [6] was 0.025 µg/mL (≈ 0.0562 µM) and the MIC (Enterobacter cloacae 963) was 0.78 µg/mL (≈ 1.75 µM). The MIC [7] was 0.025 µg/mL (≈ 0.0562 µM), the MIC [8] was 0.05 µg/mL (≈ 0.112 µM) and the MIC [9] was 0.05 µg/mL (≈ 0.112 µM). For the same compound, the MIC [10] was 0.05 µg/mL (≈ 0.112 µM), the MIC [11] was 0.013 µg/mL (≈ 0.0292 µM) and the MIC [12] was 0.013 µg/mL (≈ 0.0292 µM). For the same compound, the MIC [13] was 0.78 µg/mL (≈ 1.75 µM), the MIC [14] was 0.2 µg/mL (≈ 0.45 µM) and the MIC [15] was 0.013 µg/mL (≈ 0.0292 µM). The MIC [16] was 0.05 µg/mL (≈ 0.112 µM), the MIC [17] was 0.013 µg/mL (≈ 0.0292 µM) and the MIC [18] was 0.05 µg/mL (≈ 0.112 µM). The MIC [19] was 0.025 µg/mL (≈ 0.0562 µM), the MIC [20] was 0.05 µg/mL (≈ 0.112 µM) and the MIC [21] was 0.78 µg/mL (≈ 1.75 µM).
For `CN1Cc2csc3c(C(=O)O)c(=O)c4cc(F)c(N5CCC(=O)CC5)c1c4n23` [Compound (G), 9,1-(Methylimino)methano-7-fluoro-8-(4-oxopiperidino)-5-oxo-5H-thiazolo[3,2-a]quinoline-4-carboxylic acid], the MIC [1, 22] was 0.006 to 0.39 µg/mL (≈ 0.0149 to 0.972 µM), the MIC50 [1, 23] was at most 0.006 µg/mL and the MIC90 [1, 24] was 0.2 µg/mL (≈ 0.498 µM). The MIC [2, 25] was 0.025 to 1.56 µg/mL (≈ 0.0623 to 3.89 µM), the MIC50 [2, 28] was 0.05 µg/mL (≈ 0.125 µM) and the MIC90 ([2]; 25 clinical strains E. faecalis, 90% of strains, read-out: MIC90) was 1.56 µg/mL (≈ 3.89 µM). The MIC [3, 26] was 0.006 to 0.2 µg/mL (≈ 0.0149 to 0.498 µM), the MIC50 [3, 26] was 0.013 µg/mL (≈ 0.0324 µM) and the MIC90 ([3]; 25 clinical strains S. epidermidis, 90% of strains, read-out: MIC90) was 0.2 µg/mL (≈ 0.498 µM). The MIC50 [4] was 0.39 µg/mL (≈ 0.972 µM), the MIC ([4]; 25 clinical strains E. faecium) was 0.025 to 3.13 µg/mL (≈ 0.0623 to 7.8 µM) and the MIC90 [4, 27] was 3.13 µg/mL (≈ 7.8 µM). For the same compound, the MIC [5] was 0.013 µg/mL (≈ 0.0324 µM), the MIC [6] was at most 0.006 µg/mL and the MIC (Enterobacter cloacae 963) was 0.2 µg/mL (≈ 0.498 µM). It also gave an MIC [7] of at most 0.006 µg/mL, an MIC [8] of 0.025 µg/mL (≈ 0.0623 µM) and an MIC [9] of 0.025 µg/mL (≈ 0.0623 µM). It also gave an MIC [10] of 0.013 µg/mL (≈ 0.0324 µM), an MIC [11] of at most 0.006 µg/mL and an MIC [12] of at most 0.006 µg/mL. The MIC [13] was 0.2 µg/mL (≈ 0.498 µM), the MIC [14] was 0.05 µg/mL (≈ 0.125 µM) and the MIC [15] was at most 0.006 µg/mL. For the same compound, the MIC [16] was 0.025 µg/mL (≈ 0.0623 µM), the MIC [17] was at most 0.006 µg/mL and the MIC [18] was 0.025 µg/mL (≈ 0.0623 µM). The MIC [19] was at most 0.006 µg/mL, the MIC [20] was 0.013 µg/mL (≈ 0.0324 µM) and the MIC [21] was 0.39 µg/mL (≈ 0.972 µM).
